# Assays:
# [1] = tested on: human peripheral blood mononuclear cells (PBMC); experiment: PBMC cytotoxicity assay (CellTiter-Glo); format: cell-based; conditions: pCC50, CellTiter-Glo, stimulated human PBMC, 2 days
# Description: (§1) Compounds of the present invention were tested via high-throughput cellular assays utilizing detection of kynurenine via mass spectrometry and cytotoxicity as end-points. For the mass spectrometry and cytotoxicity assays, human peripheral blood mononuclear cells (PBMC) (PB003F; AllCells®, Alameda, Calif.) were stimulated with human interferon-γ (IFN-γ) (Sigma-Aldrich Corporation, St. Louis, Mo.) and lipopolysaccharide from Salmonella minnesota (LPS) (Invivogen, San Diego, Calif.) to induce the expression of indoleamine 2, 3-dioxygenase (IDO1). Compounds with IDO1 inhibitory properties decreased the amount of kynurenine produced by the cells via the tryptophan catabolic pathway. Cellular toxicity due to the effect of compound treatment was measured using CellTiter-Glo® reagent (CTG) (Promega Corporation, Madison, Wis.), which is based on luminescent detection of ATP, an indicator of metabolically active cells.
# (§2) In preparation for the assays, test compounds were serially diluted 3-fold in
# (§3) DMSO from a typical top concentration of 1 mM or 5 mM and plated at 0.5 μL in 384-well, polystyrene, clear bottom, tissue culture treated plates with lids (Greiner Bio-One, Kremsmünster, Austria) to generate 11-point dose response curves. Low control wells (0% kynurenine or 100% cytotoxicity) contained either 0.5 μL of DMSO in the presence of unstimulated (−IFN-γ/−LPS) PBMCs for the mass spectrometry assay or 0.5 μL of DMSO in the absence of cells for the cytotoxicity assay, and high control wells (100% kynurenine or 0% cytotoxicity) contained 0.5 μL of DMSO in the presence of stimulated (+IFN-γ/+LPS) PBMCs for both the mass spectrometry and cytotoxicity assays.
# (§4) Frozen stocks of PBMCs were washed and recovered in RPMI 1640 medium (Thermo Fisher Scientific, Inc., Waltham, Mass.) supplemented with 10% v/v heat-inactivated fetal bovine serum (FBS) (Thermo Fisher Scientific, Inc., Waltham, Mass.), and 1× penicillin-streptomycin antibiotic solution (Thermo Fisher Scientific, Inc., Waltham, Mass.). The cells were diluted to 1,000,000 cells/mL in the supplemented RPMI 1640 medium. 50 μL of either the cell suspension, for the mass spectrometry assay, or medium alone, for the cytotoxicity assay, were added to the low control wells, on the previously prepared 384-well compound plates, resulting in 50,000 cells/well or 0 cells/well respectively. IFN- y and LPS were added to the remaining cell suspension at final concentrations of 100 ng/ml and 50 ng/ml respectively, and 50 μL of the stimulated cells were added to all remaining wells on the 384-well compound plates. The plates, with lids, were then placed in a 37 °C, 5% CO2 humidified incubator for 2 days.
# (§5) Following incubation, the 384-well plates were removed from the incubator and allowed to equilibrate to room temperature for 30 minutes. For the cytotoxicity assay, CellTiter-Glo® was prepared according to the manufacturer's instructions, and 40 μL were added to each plate well. After a twenty minute incubation at room temperature, luminescence was read on an EnVision® Multilabel Reader (Perkin Elmer Inc., Waltham, Mass.). For the mass spectrometry assay, 10 μL of supernatant from each well of the compound-treated plates were added to 40 μL of acetonitrile, containing 10 μM of an internal standard for normalization, in 384-well, polypropylene, V-bottom plates (Greiner Bio-One, Kremsmunster, Austria) to extract the organic analytes. Following centrifugation at 2000 rpm for 10 minutes, 10 μL from each well of the acetonitrile extraction plates were added to 90 μL of sterile, distilled H2O in 384-well, polypropylene, V-bottom plates for analysis of kynurenine and the internal standard on the RapidFire 300 (Agilent Technologies, Santa Clara, Calif.) and 4000 QTRAP MS (SCIEX, Framingham, Mass.). MS data were integrated using Agilent Technologies' RapidFire Integrator software, and data were normalized for analysis as a ratio of kynurenine to the internal standard. […]
# [2] = target: T1, indoleamine 2, 3-dioxygenase (IDO1) (Homo sapiens, UniProt P14902); experiment: IDO1 PBMC RapidFire MS assay (kynurenine detection); format: cell-based; conditions: IFN-γ/LPS stimulated human PBMC, kynurenine by MS, 2 days; read-out: PBMC PXC50 (converted)
# T1 construct: to induce the expression of indoleamine 2, 3-dioxygenase (IDO1); host or cells: human PBMC stimulated with IFN-gamma and LPS
# T1 sequence (P14902 whole entry): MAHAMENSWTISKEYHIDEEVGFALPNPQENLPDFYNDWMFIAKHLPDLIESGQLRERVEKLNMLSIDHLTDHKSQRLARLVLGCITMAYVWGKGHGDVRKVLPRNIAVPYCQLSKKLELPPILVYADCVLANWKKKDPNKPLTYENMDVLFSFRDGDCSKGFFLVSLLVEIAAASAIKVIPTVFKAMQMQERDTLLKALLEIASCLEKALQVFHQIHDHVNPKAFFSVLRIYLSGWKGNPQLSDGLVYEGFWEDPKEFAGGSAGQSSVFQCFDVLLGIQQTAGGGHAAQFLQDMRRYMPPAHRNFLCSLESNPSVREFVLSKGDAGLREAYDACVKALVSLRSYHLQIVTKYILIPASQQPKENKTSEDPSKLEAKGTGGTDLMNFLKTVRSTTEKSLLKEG
# Description: as §1, §2, §3, §4, §5
# [3] = Plasma PK and tissue distribution after oral dosing of prodrug EXAMPLE 7 (5 mg/kg); format: in vivo; conditions: PO 5 mg/kg EXAMPLE 7 (prodrug), male Wistar Han rat, analyte as labelled
# Description: Tissue Distribution of drug intermediate C4 from oral dosing of C4 and of intermediate C4 from oral dosing of example 7 in rats
# • Wistar Han rat, 185-197 g, male, N=8, purchased from Beijing Vital River Co. LTD. Qualification No.: SCXK(J) 2016-0011 11400700240027. Fasted overnight and fed 4 hr post dose. PO: 5 mg/kg (10 mL/kg) via oral gavage(N=8). Sampling at 1, 4, 8 and 24 hr , 4 time points, terminal bleeding for plasma, liver, lymph nodes and spleen collected at each time point
# [4] = Rat oral PK studies of prodrugs at 5 mg/kg; format: in vivo; conditions: analyte as labelled
# Description: Rat oral PK studies of prodrugs at 5 mg/kg dose (solution in 100% (40 mg oleic acid+25mg Tween 80+2 mL of PBS/fresh) at 0.5 mg/mL).
# [5] = after PO dose of 5 mg/kg example 6 in male Wistar Han rat
compound,measurement,setting,value
"CCCCCCCCCCCCCCCC(=O)OCC(COC(=O)CCCCCCCCCCCCCCC)OC(=O)CCCC(=O)O[C@H]1CC[C@H](N(CC(C)C)c2ccc([C@H](C)CC(=O)O)cc2Nc2ccc(Cl)nc2)CC1 [example 1, (R)-3-(4-((trans-4-((5-((1,3-bis(palmitoyloxy)propan-2-yl)oxy)-5-oxopentanoyl)oxy)cyclohexyl) (isobutyl)amino)-3-((6-chloropyridin-3-yl)amino)phenyl)butanoic acid]",PBMC TOX PXC50,[1],<5
same,IC50,[2],158 nM
"CCCCCCCCCCCCCCCC(=O)OCC(COC(=O)CCCCCCCCCCCCCCC)OC(=O)CC(C)CC(=O)OCOC(=O)C[C@@H](C)c1ccc(N(CC(C)C)C2CCOCC2)c(Nc2cnc(Cl)cn2)c1 (stereo partly drawn) [example 7, 1-(1,3-bis(palmitoyloxy)propan-2-yl) 5-((((R)-3-(3-((5-chloropyrazin-2-yl)amino)-4-(isobutyl(tetrahydro-2H-pyran-4-yl)amino)phenyl)butanoyl)oxy)methyl) 3-methylpentanedioate]",liver Concentration Mean,[3]; 1 hr,BQL
same,liver Concentration individual,[3]; 1 hr,BQL
same,lymph node Concentration Mean,[3]; 1 hr,BQL
same,lymph node Concentration individual,[3]; 1 hr,BQL
same,plasma Concentration Mean,[3]; 1 hr,BQL
same,plasma Concentration individual,[3]; 1 hr,BQL
same,spleen Concentration Mean,[3]; 1 hr,BQL
same,spleen Concentration individual,[3]; 1 hr,BQL
same,liver Concentration Mean,[3]; 4 hr,BQL
same,liver Concentration individual,[3]; 4 hr,BQL
same,lymph node Concentration Mean,[3]; 4 hr,BQL
same,lymph node Concentration individual,[3]; 4 hr,BQL
same,plasma Concentration Mean,[3]; 4 hr,BQL
same,plasma Concentration individual,[3]; 4 hr,BQL
same,spleen Concentration Mean,[3]; 4 hr,BQL
same,spleen Concentration individual,[3]; 4 hr,BQL
same,liver Concentration Mean,[3]; 8 hr,BQL
same,liver Concentration individual,[3]; 8 hr,BQL
same,lymph node Concentration Mean,[3]; 8 hr,BQL
same,lymph node Concentration individual,[3]; 8 hr,BQL
same,plasma Concentration Mean,[3]; 8 hr,BQL
same,plasma Concentration individual,[3]; 8 hr,BQL
same,spleen Concentration Mean,[3]; 8 hr,BQL
same,spleen Concentration individual,[3]; 8 hr,BQL
same,liver Concentration Mean,[3]; 24 hr,BQL
same,liver Concentration individual,[3]; 24 hr,BQL
same,lymph node Concentration Mean,[3]; 24 hr,BQL
same,lymph node Concentration individual,[3]; 24 hr,BQL
same,plasma Concentration Mean,[3]; 24 hr,BQL
same,plasma Concentration individual,[3]; 24 hr,BQL
same,spleen Concentration Mean,[3]; 24 hr,BQL
same,spleen Concentration individual,[3]; 24 hr,BQL
same,DNAUC0_20,[4]; after PO dose of 5 mg/kg example 7 in male Wistar Han rat,not detected
same,PBMC TOX PXC50,[1],<5
same,IC50,[2],1000 nM
"CCCCCCCCCCCCCCCC(=O)OCC(COC(=O)CCCCCCCCCCCCCCC)OC(=O)CC(C)CC(=O)O[C@H]1CC[C@H](N(CC(C)C)c2ccc([C@H](C)CC(=O)O)cc2Nc2cnc(Cl)cn2)CC1 (stereo partly drawn) [example 4, (3R)-3-(4-((trans-4-((5-((1,3-bis(palmitoyloxy)propan-2-yl)oxy)-3-methyl-5-oxopentanoyl)oxy)cyclohexyl) (isobutyl)amino)-3-((5-chloropyrazin-2-yl)amino)phenyl)butanoic acid]",PBMC TOX PXC50,[1],<5
same,IC50,[2],7940 nM
"CCCCCCCCCCCCCCCC(=O)OCC(COC(=O)CCCCCCCCCCCCCCC)OC(=O)CC(C)CC(=O)OCOC(=O)C[C@@H](C)c1ccc(N(CC(C)C)C2CCOCC2)c(Nc2ccc(Cl)nc2)c1 (stereo partly drawn) [example 6, 1-(1,3-bis(palmitoyloxy)propan-2-yl) 5-((((R)-3-(3-((6-chloropyridin-3-yl)amino)-4-(isobutyl(tetrahydro-2H-pyran-4-yl)amino)phenyl)butanoyl)oxy)methyl) 3-methylpentanedioate]",DNAUC0_20,[4]; [5],not detected
same,PBMC TOX PXC50,[1],<5
same,IC50,[2],3160 nM
"CC(C)CN(c1ccc([C@H](C)CC(=O)O)cc1Nc1ccc(Cl)nc1)[C@H]1CC[C@H](O)CC1 [intermediate C2, (R)-3-(3-((6-chloropyridin-3-yl)amino)-4-(((1r,4R)-4 hydroxycyclohexyl)(isobutyl)amino)-phenyl)butanoic acid]",PBMC TOX PXC50,[1],<5
"CCCCCCCCCCCCCCCC(=O)OCC(COC(=O)CCCCCCCCCCCCCCC)OC(=O)CC(C)CC(=O)O[C@H]1CC[C@H](N(CC(C)C)c2ccc([C@H](C)CC(=O)O)cc2Nc2ccc(Cl)nc2)CC1 (stereo partly drawn) [example 3, (3R)-3-(4-((trans-4-((5-((1,3-bis(palmitoyloxy)propan-2-yl)oxy)-3-methyl-5-oxopentanoyl)oxy)cyclohexyl) (isobutyl)amino)-3-((6-chloropyridin-3-yl)amino)phenyl)butanoic acid]",PBMC TOX PXC50,[1],<5
same,IC50,[2],1260 nM
"CCCCCCCCCCCCCCCC(=O)OCC(COC(=O)CCCCCCCCCCCCCCC)OC(=O)CCCC(=O)O[C@H]1CC[C@H](N(CC(C)C)c2ccc([C@H](C)CC(=O)O)cc2Nc2cnc(Cl)cn2)CC1 [example 2, (R)-3-(4-((trans-4-((5-((1,3-bis(palmitoyloxy)propan-2-yl)oxy)-5-oxopentanoyl)oxy)cyclohexyl) (isobutyl)amino)-3-((5-chloropyrazin-2-yl)amino)phenyl)butanoic acid]",DNAUC0_20,[4]; after PO dose of 5 mg/kg example 2 in male Wistar Han rat,not detected
same,PBMC TOX PXC50,[1],<5
same,IC50,[2],251 nM
CC(C)CN(c1ccc([C@H](C)CC(=O)O)cc1Nc1cnc(Cl)cn1)[C@H]1CC[C@H](O)CC1 [intermediate C3],PBMC TOX PXC50,[1],<5
"CCCCCCCCCCCCCCCC(=O)OCC(COC(=O)CCCCCCCCCCCCCCC)OC(=O)CC(C)CC(=O)Oc1cc(C)cc(C)c1C(C)(C)CC(=O)O[C@H]1CC[C@H](N(CC(C)C)c2ccc([C@H](C)CC(=O)O)cc2Nc2cnc(Cl)cn2)CC1 (stereo partly drawn) [example 5, (3R)-3-(4-((trans-4-((3-(2-((5-((1,3-bis(palmitoyloxy)propan-2-yl)oxy)-3-methyl-5-oxopentanoyl)oxy)-4,6-dimethylphenyl)-3-methylbutanoyl)oxy)cyclohexyl)(isobutyl)amino)-3-((5-chloropyrazin-2-yl)amino)phenyl)butanoic acid]",DNAUC0_20,[4]; after PO dose of 5 mg/kg example 5 in male Wistar Han rat,not detected
same,PBMC TOX PXC50,[1],<5
same,IC50,[2],631 nM
CC(C)CN(c1ccc([C@H](C)CC(=O)O)cc1Nc1ccc(Cl)nc1)C1CCOCC1 [intermediate C5],DNAUC0_20,[4]; [5],75 ng·h/mL
same,PBMC TOX PXC50,[1],<5

# — US20210186960A1, “MODULATORS OF INDOLEAMINE 2,3-DIOXYGENASE” (GLAXOSMITHKLINE INTELLECTUAL PROPERTY DEVELOPMENT LIMITED, priority 2017, published 2021)
